Results taken from patent US8501713B2, “Drug combinations for the treatment of duchenne muscular dystrophy” (Summit Corporation PLC, priority 2007, dated 2013).

System: Utrophin A promoter linked to a luciferase reporter gene
Assay: Luciferase reporter assay (murine H2K cells)
Format: cell-based
Conditions: Mus musculus, H2K mdx, luciferase level relative to control; H2K/mdx/Utro A reporter cells; compound 10 μM final concentration; read-out: Activity
How it was run: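 Immortalized mdx mouse H2K myoblasts stably carrying a ~5 kb utrophin A promoter–luciferase construct, kept at 33° C, 10% CO2. After 24 hrs plating, compound added at 10 μM final for 48 hrs; luciferase light output read after in-situ lysis.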

| SMILES | activity at 10 µM [%] |
| --- | --- |
| COCCC(=O)Nc1ccc2oc(-c3ccc(C)cc3)nc2c1 [Example 160, 3-methoxy-N-(2-p-tolylbenzo[d]oxazol-5-yl)propanamide] | > 401 |
| Cc1ccc(-c2nc3cc(-c4ccccc4)ccc3o2)cc1 [Example 161, 5-phenyl-2-p-tolylbenzo[d]oxazole] | 301 to 400 |
| Clc1ccc(-c2nc3cc(-c4ccccc4)ccc3o2)cc1 [Example 162, 2-(4-chlorophenyl)-5-phenylbenzo[d]oxazole] | < 200 |
| O=[N+]([O-])c1ccc2oc(C3CCCCC3)nc2c1 [Example 163, 2-cyclohexyl-5-nitrobenzo[d]oxazole] | < 200 |
| O=[N+]([O-])c1ccc2nc(-c3ccc(Cl)cc3)[nH]c2c1 [Example 164, 2-(4-chlorophenyl)-6-nitro-1H-benzo[d]imidazole] | 201 to 300 |
| O=C(Cc1ccccc1)Nc1ccc2oc(Cc3ccccc3)nc2c1 [Example 165, N-(2-benzylbenzo[d]oxazol-5-yl)-2-phenylacetamide] | < 200 |
| CCCC(=O)Nc1ccc2[nH]c(-c3ccc(C)cc3)nc2c1 [Example 166, N-(2-p-tolyl-1H-benzo[d]imidazol-5-yl)butyramide] | < 200 |
| CCCCNc1ccc2oc(-c3ccccc3)nc2c1 [Example 167, N-butyl-2-phenylbenzo[d]oxazol-5-amine] | > 401 |
| CC(C)CNc1ccc2oc(-c3ccccc3)nc2c1 [Example 168, N-isobutyl-2-phenylbenzo[d]oxazol-5-amine] | > 401 |
| Nc1cnc2oc(-c3ccccc3)nc2c1 [Example 169, 2-phenyloxazolo[5,4-b]pyridin-6-amine] | < 200 |
| CCCC(=O)Nc1cnc2oc(-c3ccccc3)nc2c1 [Example 170, N-(2-phenyloxazolo[5,4-b]pyridin-6-yl)butyramide] | < 200 |
| O=[N+]([O-])c1ccc2oc(-c3ccccn3)nc2c1 [Example 171, 5-nitro-2-(pyridin-2-yl)benzo[d]oxazole] | < 200 |
| Cc1ccc(-c2nc3cc(C(C)(C)C)ccc3o2)cc1 [Example 172, 5-tert-butyl-2-p-tolylbenzo[d]oxazole] | > 401 |
| Cc1ccc(-c2nc3ccccc3o2)cc1 [Example 173, 2-p-tolylbenzo[d]oxazole] | 301 to 400 |
| Nc1ccc2oc(-c3cccc(C(F)(F)F)c3)nc2c1 [Example 174, 2-(3-(trifluoromethyl)phenyl)benzo[d]oxazol-5-amine] | < 200 |
| Cc1ccc(-c2nc3cc(NC(=O)C(C)C)ccc3[nH]2)cc1 [Example 175, N-(2-p-tolyl-1H-benzo[d]imidazol-5-yl)isobutyramide] | < 200 |
| CCCCNC(=O)c1ccc2oc(-c3ccc(C)cc3)nc2c1 [Example 176, N-butyl-2-p-tolylbenzo[d]oxazole-5-carboxamide] | 201 to 300 |
| CCCNC(=O)c1ccc2oc(-c3ccc(C)cc3)nc2c1 [Example 177, N-propyl-2-p-tolylbenzo[d]oxazole-5-carboxamide] | > 401 |
| CCCC(=O)Nc1ccc2[nH]c(-c3ccc(Cl)cc3)nc2c1 [Example 178, N-(2-(4-chlorophenyl)-1H-benzo[d]imidazol-5-yl)butyramide] | < 200 |

| SMILES | activity at 10 µM [%] |
| --- | --- |
| CCS(=O)(=O)c1ccc2oc(-c3ccc(C)cc3)nc2c1 [Example 179, 5-(ethylsulfonyl)-2-p-tolylbenzo[d]oxazole] | > 401 |
| CCS(=O)(=O)c1ccc2oc(-c3ccc(Cl)cc3)nc2c1 [Example 180, 2-(4-chlorophenyl)-5-(ethylsulfonyl)benzo[d]oxazole] | > 401 |
| Cc1ccc(-c2nc3cc(C(=O)NC(C)C)ccc3o2)cc1 [Example 181, N-isopropyl-2-p-tolylbenzo[d]oxazole-5-carboxamide] | 301 to 400 |
| CCCCNc1ccc2oc(-c3ccc(Cl)cc3)nc2c1 [Example 182, N-butyl-2-(4-chlorophenyl)benzo[d]oxazol-5-amine] | 301 to 400 |
| CC(C)CNc1ccc2oc(-c3ccc(Cl)cc3)nc2c1 [Example 183, 2-(4-chlorophenyl)-N-isobutylbenzo[d]oxazol-5-amine] | 301 to 400 |
| Clc1ccc(-c2nc3cc(NCc4ccccc4)ccc3o2)cc1 [Example 184, N-benzyl-2-(4-chlorophenyl)benzo[d]oxazol-5-amine] | < 200 |
| CCCCNc1ccc2oc(-c3ccc(C)cc3)nc2c1 [Example 185, N-butyl-2-p-tolylbenzo[d]oxazol-5-amine] | 301 to 400 |
| Cc1ccc(-c2nc3cc(NCC(C)C)ccc3o2)cc1 [Example 186, N-isobutyl-2-p-tolylbenzo[d]oxazol-5-amine] | 301 to 400 |
| Cc1ccc(-c2nc3cc(NCc4ccccc4)ccc3o2)cc1 [Example 187, N-benzyl-2-p-tolylbenzo[d]oxazol-5-amine] | 301 to 400 |
| CC(C)C(=O)Nc1ccc2[nH]c(-c3ccccc3)nc2c1 [Example 188, N-(2-phenyl-1H-benzo[d]imidazol-5-yl)isobutyramide] | 301 to 400 |
| Cc1ccc(-c2nc3c([N+](=O)[O-])cccc3o2)cc1 [Example 189, 4-nitro-2-p-tolylbenzo[d]oxazole] | < 200 |
| Cc1ccc(-c2nc3ccc([N+](=O)[O-])cc3o2)cc1 [Example 190, 6-nitro-2-p-tolylbenzo[d]oxazole] | 301 to 400 |
| O=[N+]([O-])c1ccc2nc(-c3ccc(Cl)cc3)oc2c1 [Example 191, 2-(4-chlorophenyl)-6-nitrobenzo[d]oxazole] | 201 to 300 |
| Cc1ccc(-c2nc3cnccc3o2)cc1 [Example 192, 2-p-tolyloxazolo[4,5-c]pyridine] | < 200 |
| CCCS(=O)(=O)Nc1ccc2oc(-c3ccccc3)nc2c1 [Example 193, N-(2-phenylbenzo[d]oxazol-5-yl)propane-1-sulfonamide] | 201 to 300 |
| CCCC(=O)Nc1ccc2[nH]c(-c3ccccc3)nc2c1 [Example 194, N-(2-phenyl-1H-benzo[d]imidazol-5-yl)butyramide] | 201 to 300 |
| CC(C)C(=O)Nc1ccc2[nH]c(-c3ccc(Cl)cc3)nc2c1 [Example 195, N-(2-(4-chlorophenyl)-1H-benzo[d]imidazol-5-yl)isobutyramide] | 201 to 300 |
| Cc1cccc(-c2nc3cc(N)ccc3o2)c1 [Example 196, 2-m-tolylbenzo[d]oxazol-5-amine] | < 200 |
| CN(C)c1cccc(-c2nc3cc(N)ccc3o2)c1 [Example 197, 2-(3-(dimethylamino)phenyl)benzo[d]oxazol-5-amine] | < 200 |

| SMILES | activity at 10 µM [%] |
| --- | --- |
| Cc1ccc(-c2nc3cc(Br)ccc3o2)cc1 [Example 198, 5-bromo-2-p-tolylbenzo[d]oxazole] | 301 to 400 |
| COc1ccc(-c2ccc3oc(-c4ccc(C)cc4)nc3c2)cc1 [Example 199, 5-(4-methoxyphenyl)-2-p-tolylbenzo[d]oxazole] | < 200 |
| CCCC(=O)Nc1ccc2oc(-c3cccc(C)c3)nc2c1 [Example 200, N-(2-m-tolylbenzo[d]oxazol-5-yl)butyramide] | > 401 |
| CCCC(=O)Nc1ccc2oc(-c3cccc(N(C)C)c3)nc2c1 [Example 201, N-(2-(3-(dimethylamino)phenyl)benzo[d]oxazol-5-yl)butyramide] | < 200 |
| Cc1cccc(-c2nc3cc(NC(=O)C(C)C)ccc3o2)c1 [Example 202, N-(2-m-tolylbenzo[d]oxazol-5-yl)isobutyramide] | > 401 |
| CC(C)C(=O)Nc1ccc2oc(-c3cccc(C(F)(F)F)c3)nc2c1 [Example 203, N-(2-(3-(trifluoromethyl)phenyl)benzo[d]oxazol-5-yl)isobutyramide] | < 200 |
| CC(C)C(=O)Nc1ccc2oc(-c3cccc(N(C)C)c3)nc2c1 [Example 204, N-(2-(3-(dimethylamino)phenyl)benzo[d]oxazol-5-yl)isobutyramide] | > 401 |
| Cc1ccccc1-c1nc2cc(N)ccc2o1 [Example 205, 2-o-tolylbenzo[d]oxazol-5-amine] | 301 to 400 |
| Nc1ccc2oc(-c3ccccc3Cl)nc2c1 [Example 206, 2-(2-chlorophenyl)benzo[d]oxazol-5-amine] | 201 to 300 |
| CCC(=O)Nc1ccc2oc(-c3ccc(Cl)cc3)nc2c1 [Example 207, N-(2-(4-chlorophenyl)benzo[d]oxazol-5-yl)propionamide] | > 401 |
| Cc1ccc(-c2nc3cc(NC(=O)C(C)(C)C)ccc3o2)cc1 [Example 208, N-(2-p-tolylbenzo[d]oxazol-5-yl)pivalamide] | 201 to 300 |
| Cc1ccc(-c2nc3cc(NC(=O)C(F)(F)F)ccc3o2)cc1 [Example 209, 2,2,2-trifluoro-N-(2-p-tolylbenzo[d]oxazol-5-yl)acetamide] | 201 to 300 |
| CC(C)(C)C(=O)Nc1ccc2oc(-c3ccc(Cl)cc3)nc2c1 [Example 210, N-(2-(4-chlorophenyl)benzo[d]oxazol-5-yl)pivalamide] | 201 to 300 |
| O=C(Nc1ccc2oc(-c3ccc(Cl)cc3)nc2c1)C(F)(F)F [Example 211, N-(2-(4-chlorophenyl)benzo[d]oxazol-5-yl)-2,2,2-trifluoroacetamide] | 201 to 300 |
| Cc1ccc(-c2nc3cc(Br)cnc3o2)cc1 [Example 212, 6-bromo-2-p-tolyloxazolo[5,4-b]pyridine] | 201 to 300 |
| Cc1ccc(-c2nc3cc(N)ccc3s2)cc1 [Example 213, 2-p-tolylbenzo[d]thiazol-5-amine] | < 200 |
| O=[N+]([O-])c1ccc2oc(Cc3ccccc3)nc2c1 [Example 214, 2-benzyl-5-nitrobenzo[d]oxazole] | < 200 |
| Cc1ccc(-c2nc3cc(C)c(C)cc3o2)cc1 [Example 215, 5,6-dimethyl-2-p-tolylbenzo[d]oxazole] | > 401 |
| CCCC(=O)Nc1ccc2sc(-c3ccc(C)cc3)nc2c1 [Example 216, N-(2-p-tolylbenzo[d]thiazol-5-yl)butyramide] | > 401 |
